Here are results for 4 molecules from US10694746B2, “Fungicidal composition” (JIANGSU HUIFENG BIO AGRICULTURE CO., LTD., priority 2016, dated 2020).

≈ marks a conversion by molar mass, not a printed value.

What all share (assay type): in vivo
The subject of one assay is potato late blight. Particulars: for ATI (actual toxicity index): (EC50 of standard/EC50 of test agent)*100, standard MBIT; for EC50: potato late blight.
Another assay concerns apple anthracnose. Description: Toxicity test of BBIT combined with mancozeb on apple anthracnose (bioassay). As to conditions: for ATI (actual toxicity index): (EC50 of standard/EC50 of test agent)*100, standard BBIT; for EC50: apple anthracnose.
The subject of another assay is cucumber downy mildew. The experiment in a line: Toxicity test of BIT combined with mancozeb on cucumber downy mildew (bioassay). Particulars: for ATI (actual toxicity index): (EC50 of standard/EC50 of test agent)*100, standard BIT; for EC50: cucumber downy mildew.

In general, EC50 refers to the concentration needed to bring the measured effect to its halfway point. Regarding `Cn1sc2ccccc2c1=O` [MBIT, 2-methyl-1,2-benzisothiazolin-3-one], in the assay with potato late blight, the “ATI (actual toxicity index)” value worked out at 100.00 and the EC50 turned out to be 14.81 µg/mL (≈ 89.6 µM).
For mancozeb, the “ATI (actual toxicity index)” value is recorded as 20.67 in the assay on apple anthracnose, 17.96 in the assay with cucumber downy mildew and 21.69 in the assay with potato late blight. Besides, the EC50 in the assay on apple anthracnose was determined as 92.36 µg/mL; with cucumber downy mildew, 75.17 µg/mL; with potato late blight, 68.27 µg/mL.
`O=c1[nH]sc2ccccc12` [BIT, 1,2-benzisothiazolin-3-one]: in the assay on cucumber downy mildew, the “ATI (actual toxicity index)” value is listed as 100.00 and the EC50 is 13.5 µg/mL.
On to `CCCCn1sc2ccccc2c1=O` [BBIT, 2-n-butyl-1,2-benzisothiazolin-3-one], for which, in the assay with apple anthracnose, the “ATI (actual toxicity index)” value turned out to be 100 and the EC50 turned out to be 19.09 µg/mL.
